Patent US20240254135A1, “POLYPHENOL COMPOUNDS” (Epirium Bio Inc., priority 2022, published 2024)
Values belong to the compound of their own block, whether it stands above or below them.

Experiments:
PGC-1α = assay: In vitro PGC-1α expression in differentiated C2C12 cells (cell ELISA); type: cell-based
Experimental: Culture conditions: DMEM containing 25 mM glucose with 10% FBS supplementation; grown at 37° C. and 5% CO2.
Drugs: (+)Epicatechin, AICAR (direct activator of AMPK).
Assay Conditions: C2C12 cells were cultured in DMEM supplemented in 10% FBS up to 80% confluence. The cells were further trypsinized and seeded into a 96 well plate at a density of 5000 cells/well (well volume—100 μL) (Day 0). Following attachment, the cells were allowed to reach 80-90% confluence in the plate (typically 48 hours post seeding) and further differentiated using DMEM+2% Horse Serum (200 μL/well). The media was changed every day or at least every alternate day for 5 days to allow myoblasts to differentiate into myotubes. On day 7 (post seeding), the cells were treated with standards and test compounds for PGC-1 α assay.
PGC-1α assay: For the detection of PGC-1α, the cells were incubated with 0.5 μg/ml primary antibody (Merck, WH0010891M3) in PBS-T containing 5% BSA at 4° C. overnight. The cells were then washed three times with PBS-T for 5 minutes and incubated with 1:1000 dilution secondary antibody (Anti-rabbit IgG, HRP-linked Antibody, Cell Signaling) in PBS-T with 1% BSA for 1 hour at RT. Cells were washed three times with PBS-T for 5 minutes The cells were incubated with 100 μl TMB substrate solution for 30 minutes and the reaction was stopped with 100 μl of 2N H2SO4. […] (For plate optical density calculations, a background correction was taken at 540 nm). The final PGC-1α activation % is average of activation of 6 replicates.

[1] = Pharmacokinetics: quantitative determination in mice brains (LCMS); type: in vivo, C57BL/6 Mice; settings: mice brain, 10 mg/kg PO single dose, 10% NMP vehicle; for Tmax: C57BL/6, mouse
Experimental: C57BL/6 Mice, Age 7-9 weeks, body weight range 20-25 g were used. The mice were fasted overnight. Mice were dosed once a day for a single day at 10 mg/kg, 10 mg/kg. 6 time-points were used for whole blood. 10% NMP was used as a vehicle. 9 animals were used per treatment, with three groups of three animals each. Group 1 had time points at 15 and 60 minutes, Group 2 had time points at 30 and 120 minutes, and Group 3 had time points at 90 and 240 minutes. An Oral (PO) route was used. Plasma and brain samples were collected (brain sample collected at terminal time point). Plasma was collected through the centrifugation of whole blood at 10,000 rpm for 10 minutes at 4° C. Samples were stored at −80° C. until processing.
1.00 mg/mL in 100% MeOH PP vials (prepared at RT yellow light) at 2-8° C. were used as stock solution. 12.22-50000 ng/mL using 80% MeOH PP vials (prepared at RT yellow light) at 2-8° C. were used as working solution. 0.48-2000 ng/ml (prepared at RT yellow light) was used for the curve range. For Compounds 75b and 78a, 1.00 mg/mL of Compound 79 in 100% methanol Ria vials (Prepared at RT yellow light) was used as IS stock solution, and 60 ng/ml of Compound 79 in 80% methanol (Prepared at RT yellow light) was used as IS working solution. For Compound 76b, 1.00 mg/mL of Compound 44 in 100% methanol Ria vials (Prepared at RT yellow light) was used as IS stock solution, and 60 ng/ml of Compound 44 in 80% methanol (Prepared at RT yellow light) was used as IS working solution. A linear, 1/x2 fit type was used. The injection volume was 15 μL. Mobile Phase A was 0.1% Formic Acid in water at room temperature. Mobile Phase B was 100% methanol at room temperature. R0 wash solution was 80% methanol at room temperature. R^3 wash solution was IPA/MeOH/ACN/water (1:1:1:1) at room temperature. The column was Agilent Eclipse 50*2.1 mm 1.8 μm and the instrument was Shimadzu LC-40 UPLC and AB Sciez 6500+ with LCMS002.
For Compound 75b, 100 mg of brain tissue were weighed, 400 μL of Ice cold PBS was added, and the sample was homogenated using a polytron homogenizer. Before starting the experiment the blade was cleaned with NS, Methanol, Methanol:Water (50:50) followed by NS. Using a pipette with Methanol-rinsed pipette tips, 50 μL of each sample (calibration curve sample, QC samples and blank matrix) was aliquot to labeled 12×75-mm glass tubes. Using Methanol-rinsed pipette tips, 5.0 μL of IS of conc. 60 ng (Compound 79) was added to each standard and samples except Blank. All tubes were mixed on a multi-tube vortex for approximately 30 seconds. 1 ml of Ethyl Acetate was added. All tubes were mixed on a multi-tube vortex for approximately 5 minutes then centrifuged for 10 min at 5,000 rpm, 4° C. The sample was kept in methanol containing dry ice for few seconds to freeze the Aqueous layer (flash freeze method). The upper organic layer was poured from the frozen tubes into the labeled 12×75-mm glass tubes then evaporated to dryness under nitrogen using Liquid Evaporator (30° C., −15 psi, ˜ 10 mins). 200 μl of reconstitution solution (10 mM Ammonium Formate:MeOH (40:60 v/v) was added into each tube, which was then vortexed for 30 seconds and transferred to amber glass injection vials for injection. At the terminal time points, animals were euthanized after blood sample collection. Their skulls were opened and whole brains were separated and collected in previously labeled tubes. The tubes were then immediately transferred into liquid nitrogen container for snap freezing. Later the samples were stored at −80° C.
For Compounds 76b and 78a, 100 mg of brain tissue were weighed, 400 μL of Ice cold PBS was added, and the samples were homogenated using a polytron homogenizer. Before starting the experiment the blade was cleaned with NS, Methanol, Methanol:Water (50:50) followed by NS. […]

[2] = Table 3, differentiated C2C12 cells, 0.001 nM, DMSO control = 100%, OD@650 nm

Structure (SMILES): Oc1cc(O)c2c(c1)O[C@H](c1ccc(O)c(O)c1)[C@H](O)C2 [Epicatechin, (+)Epicatechin, reference compound]
- % Activity (PGC-1α expression) (PGC-1α; [2]): 119%
- % Activity (PGC-1α expression) (PGC-1α; Table 4, differentiated C2C12 cells, 0.001 nM, OD at 5 minutes): 120%
- % Activity (PGC-1α expression) (PGC-1α; Table 5, differentiated C2C12, 5000 cells/well, 0.001 nM, DMSO = 100): 133%
- % Activity (PGC-1α expression) (PGC-1α; Table 6, C2C12 cells, 5000 cells/well, 0.001 nM): 127%
- % Activity (PGC-1α expression) (PGC-1α; Table 7, C2C12 cells, 5000 cells/well, 0.001 nM, DMSO = 100): 133%
- % Activity (PGC-1α expression) (PGC-1α; Table 8, C2C12 cells, 5000 cells/well, 0.001 nM, DMSO = 100): 139%

- Tmax [1]: 1 h
- AUC0-4 [1]: 29.135 hr*g/tissue
Structure (SMILES): Oc1cc(O)c2c(c1)OC(c1ccccc1)C(O)C2 (single isomer, unassigned) [Compound 78a, 2-phenylchromane-3,5,7-triol]
- % Activity (PGC-1α expression) (PGC-1α; Table 8, C2C12 cells, 5000 cells/well, 0.01 nM, DMSO = 100): 128%

- Tmax [1]: 1 h
- AUC0-4 [1]: 238.5399 hr*g/tissue
Structure (SMILES): COc1cc(C2Oc3ccccc3CC2O)ccc1F (single isomer, unassigned) [Compound 75b, 2-(4-fluoro-3-methoxyphenyl)chroman-3-ol]
- % Activity (PGC-1α expression) (PGC-1α; Table 3, differentiated C2C12 cells, 0.0001 nM, DMSO control = 100%): 118%
- % Activity (PGC-1α expression) (PGC-1α; [2]): 125%
- % Activity (PGC-1α expression) (PGC-1α; Table 3, differentiated C2C12 cells, 0.01 nM, DMSO control = 100%): 122%
- % Activity (PGC-1α expression) (PGC-1α; Table 3, differentiated C2C12 cells, 0.1 nM, DMSO control = 100%): 116%
- % Activity (PGC-1α expression) (PGC-1α; Table 3, differentiated C2C12 cells, 1 nM, DMSO control = 100%): 120%
- % Activity (PGC-1α expression) (PGC-1α; Table 4, differentiated C2C12 cells, 0.01 nM, OD at 5 minutes): 130%

Structure (SMILES): Oc1ccc2c(c1)OC(c1ccc(O)c(C(F)(F)F)c1)C(O)C2 (single isomer, unassigned) [Compound 77b, 2-(4-hydroxy-3-(trifluoromethyl)phenyl)chromane-3,7-diol]
- % Activity (PGC-1α expression) (PGC-1α; Table 6, C2C12 cells, 5000 cells/well, 0.01 nM): 138%
- % Activity (PGC-1α expression) (PGC-1α; Table 7, C2C12 cells, 5000 cells/well, 0.01 nM, DMSO = 100): 135%

- Tmax [1]: 1 h
- AUC0-4 [1]: 5.993 hr*g/tissue
Structure (SMILES): Oc1cc(O)c2c(c1)OC(c1ccc(O)c(F)c1)C(O)C2 (single isomer, unassigned) [Compound 76b, 2-(3-fluoro-4-hydroxyphenyl)chromane-3,5,7-triol]
- % Activity (PGC-1α expression) (PGC-1α; Table 5, differentiated C2C12, 5000 cells/well, 0.01 nM, DMSO = 100): 128%
